Assay results taken from publication PMC12136037, “Type II kinase inhibitors that target Parkinson’s disease–associated LRRK2” (Science Advances, 2025).
Values joined by “and” are separate entries in the source; they are usually repeats but may differ in a detail not shown here. Equal values may be shown once. “Also recorded” adds a separate entry of the source.

Assays:
G2019S LRRK2 = target: T1, G2019S LRRK2 (Homo sapiens, UniProt Q5S007, G2019S); assay: Western blot of Rab8a phosphorylation in 293T cells transfected with G2019S LRRK2 and GFP-Rab8a; format: cell-based; settings: for inhibition of Rab8a phosphorylation by wild-type and G2019S LRRK2: 293T cells; for pRab8/Rab8/LRRK2 normalized to DMSO, Mean / pRab8/Rab8/LRRK2 normalized to DMSO: GFP-11 tagged G2019S LRRK2, 5 μM; for pRab8/Rab8/LRRK2 normalized to DMSO, Mean: 4 replicates; for pRab8/Rab8/LRRK2 normalized to DMSO: individual blots, normalized to WT DMSO (G2019S DMSO mean 2.25334)
T1 construct: The three constructs used in this study are indicated: full-length LRRK2, LRRK2^RCKW, and LRRK2^KW
Method: For all in cell kinase assays, after 48 hours, transfected cells were treated with either DMSO (control) or the indicated inhibitors for 4 hours at 37°C and 5% CO2. Following treatments, cells were washed three times with ice cold PBS. Cells were then lysed in ice cold radioimmunoprecipitation assay (RIPA) lysis buffer [50 mM tris (pH 8.0), 150 mM NaCl, 1% Triton X-100, 0.1% SDS, 0.5% sodium deoxycholate, and 1 mM DTT] in the presence of complete mini EASYpack protease inhibitor cocktail and the PhosSTOP EASYpack phosphatase inhibitor cocktail (Roche). Resuspended and lysed cells were clarified by centrifugation at 13,000g for 15 min at 4°C. […] The membrane was blocked in 5% milk in 1× Tris-buffered saline (TBS) [20 mM tris (pH 8.0) and 150 mM NaCl] for 1 hour shaking at room temperature. […] Membranes were then washed three times in 1× TBS-T before imaging on Li-COR Odyssey CLx controlled by Imaging Studio software (www.licorbio.com/image-studio, RRID:SCR_015795). […] The signal intensity of each band was assessed using the Analyze>Gels tool. The band intensity for phosphorylated LRRK2 was measured and compared to total LRRK2 levels (run under identical conditions on a separate gel). Band intensity for phosphorylated Rab7 or Rab8a was measured and compared against total GFP-Rab7 or GFP-Rab8a (using anti-GFP antibody) and LRRK1/LRRK2 levels as appropriate. Comparative statistical analysis of phosphorylation levels was analyzed using a one-way analysis of variance (ANOVA) and corrected using Tukey’s multiple comparisons test in GraphPad Prism 10 (www.graphpad.com/, RRID:SCR_002798).

LRRK1 = LRRK1 (Homo sapiens, UniProt Q38SD2); assay: Western blot of Rab7 phosphorylation (pS72) in 293T cells transfected with LRRK1 and GFP-Rab7; format: cell-based; settings: for pRab7/Rab7/LRRK1 normalized to DMSO, Mean / pRab7/Rab7/LRRK1 normalized to DMSO: 4 h; for pRab7/Rab7/LRRK1 normalized to DMSO, Mean: 3 replicates; for pRab7/Rab7/LRRK1 normalized to DMSO: individual Western blots; for inhibition of LRRK1 kinase activity in cells: 293T cells, Rab7 phosphorylation
Method: For all in cell kinase assays, after 48 hours, transfected cells were treated with either DMSO (control) or the indicated inhibitors for 4 hours at 37°C and 5% CO2. Following treatments, cells were washed three times with ice cold PBS. Cells were then lysed in ice cold radioimmunoprecipitation assay (RIPA) lysis buffer [50 mM tris (pH 8.0), 150 mM NaCl, 1% Triton X-100, 0.1% SDS, 0.5% sodium deoxycholate, and 1 mM DTT] in the presence of complete mini EASYpack protease inhibitor cocktail and the PhosSTOP EASYpack phosphatase inhibitor cocktail (Roche). Resuspended and lysed cells were clarified by centrifugation at 13,000g for 15 min at 4°C. NuPAGE LDS Sample Buffer (1×) and NuPAGE Sample Reducing Agent (1×; Invitrogen) were added to the clarified supernatants, and the samples were boiled at 95°C for 5 min and spun down at 13,000g for 10 min. For Western blotting, 15 μl of sample was loaded into a NuPAGE 4 to 12% gradient bis-tris gel (Invitrogen) and run at 120 V for 75 min before transfer to polyvinylidene difluoride transfer membrane (0.45-μm pore size, Millipore) for 240 min at 80 V at 4°C. The membrane was blocked in 5% milk in 1× Tris-buffered saline (TBS) [20 mM tris (pH 8.0) and 150 mM NaCl] for 1 hour shaking at room temperature. Primary antibodies [monoclonal rabbit anti-LRRK2 (Abcam, ab133474; RRID: AB_2713963), polyclonal rabbit anti-LRRK1 (Abcam, ab228666), monoclonal rabbit anti-LRRK2 phospho-S935 (Abcam, ab133450; RRID: AB_2732035), monoclonal rabbit anti-Rab8a phospho-T72 (Abcam, ab230260; RRID: AB_2814988), monoclonal rabbit anti-Rab7 phospho-S72 (Abcam, ab302494; RRID: AB_2933985), monoclonal rabbit anti–glyceraldehyde-3-phosphate dehydrogenase (GAPDH; Cell Signalling Technology, 2118; RRID: AB_561053), and monoclonal mouse anti-GFP (Santa Cruz Biotechnology, sc-9996; RRID: AB_627695)] were diluted in 5% milk in TBS and incubated with membrane for 16 hours at 4°C. Following incubation, membranes were washed three times with 1× TBS-T [20 mM tris (pH 8.0), 150 mM NaCl, and 0.1% Tween 20] before incubation with IRDye 680RD goat anti-rabbit IgG (LI-COR, 926-68071; RRID: AB_10956166) and IRDye 800CW goat anti-mouse IgG (LI-COR, 926-32210; RRID: AB_621842) secondary antibodies in 5% milk in 1× TBS for 1 hour at room temperature. Membranes were then washed three times in 1× TBS-T before imaging on Li-COR Odyssey CLx controlled by Imaging Studio software (www.licorbio.com/image-studio, RRID:SCR_015795). Image processing and quantification were performed in ImageJ version 2.14.0 (National Institutes of Health; https://imagej.net/, RRID:SCR_003070). The signal intensity of each band was assessed using the Analyze>Gels tool. The band intensity for phosphorylated LRRK2 was measured and compared to total LRRK2 levels (run under identical conditions on a separate gel). Band intensity for phosphorylated Rab7 or Rab8a was measured and compared against total GFP-Rab7 or GFP-Rab8a (using anti-GFP antibody) and LRRK1/LRRK2 levels as appropriate. Comparative statistical analysis of phosphorylation levels was analyzed using a one-way analysis of variance (ANOVA) and corrected using Tukey’s multiple comparisons test in GraphPad Prism 10 (www.graphpad.com/, RRID:SCR_002798). (For current step-by-step protocol for LRRK transfection and Western blotting, see dx.doi.org/10.17504/protocols.io.kxygx9bozg8j/v1.)

LRRK1, sequence (Q38SD2 whole entry): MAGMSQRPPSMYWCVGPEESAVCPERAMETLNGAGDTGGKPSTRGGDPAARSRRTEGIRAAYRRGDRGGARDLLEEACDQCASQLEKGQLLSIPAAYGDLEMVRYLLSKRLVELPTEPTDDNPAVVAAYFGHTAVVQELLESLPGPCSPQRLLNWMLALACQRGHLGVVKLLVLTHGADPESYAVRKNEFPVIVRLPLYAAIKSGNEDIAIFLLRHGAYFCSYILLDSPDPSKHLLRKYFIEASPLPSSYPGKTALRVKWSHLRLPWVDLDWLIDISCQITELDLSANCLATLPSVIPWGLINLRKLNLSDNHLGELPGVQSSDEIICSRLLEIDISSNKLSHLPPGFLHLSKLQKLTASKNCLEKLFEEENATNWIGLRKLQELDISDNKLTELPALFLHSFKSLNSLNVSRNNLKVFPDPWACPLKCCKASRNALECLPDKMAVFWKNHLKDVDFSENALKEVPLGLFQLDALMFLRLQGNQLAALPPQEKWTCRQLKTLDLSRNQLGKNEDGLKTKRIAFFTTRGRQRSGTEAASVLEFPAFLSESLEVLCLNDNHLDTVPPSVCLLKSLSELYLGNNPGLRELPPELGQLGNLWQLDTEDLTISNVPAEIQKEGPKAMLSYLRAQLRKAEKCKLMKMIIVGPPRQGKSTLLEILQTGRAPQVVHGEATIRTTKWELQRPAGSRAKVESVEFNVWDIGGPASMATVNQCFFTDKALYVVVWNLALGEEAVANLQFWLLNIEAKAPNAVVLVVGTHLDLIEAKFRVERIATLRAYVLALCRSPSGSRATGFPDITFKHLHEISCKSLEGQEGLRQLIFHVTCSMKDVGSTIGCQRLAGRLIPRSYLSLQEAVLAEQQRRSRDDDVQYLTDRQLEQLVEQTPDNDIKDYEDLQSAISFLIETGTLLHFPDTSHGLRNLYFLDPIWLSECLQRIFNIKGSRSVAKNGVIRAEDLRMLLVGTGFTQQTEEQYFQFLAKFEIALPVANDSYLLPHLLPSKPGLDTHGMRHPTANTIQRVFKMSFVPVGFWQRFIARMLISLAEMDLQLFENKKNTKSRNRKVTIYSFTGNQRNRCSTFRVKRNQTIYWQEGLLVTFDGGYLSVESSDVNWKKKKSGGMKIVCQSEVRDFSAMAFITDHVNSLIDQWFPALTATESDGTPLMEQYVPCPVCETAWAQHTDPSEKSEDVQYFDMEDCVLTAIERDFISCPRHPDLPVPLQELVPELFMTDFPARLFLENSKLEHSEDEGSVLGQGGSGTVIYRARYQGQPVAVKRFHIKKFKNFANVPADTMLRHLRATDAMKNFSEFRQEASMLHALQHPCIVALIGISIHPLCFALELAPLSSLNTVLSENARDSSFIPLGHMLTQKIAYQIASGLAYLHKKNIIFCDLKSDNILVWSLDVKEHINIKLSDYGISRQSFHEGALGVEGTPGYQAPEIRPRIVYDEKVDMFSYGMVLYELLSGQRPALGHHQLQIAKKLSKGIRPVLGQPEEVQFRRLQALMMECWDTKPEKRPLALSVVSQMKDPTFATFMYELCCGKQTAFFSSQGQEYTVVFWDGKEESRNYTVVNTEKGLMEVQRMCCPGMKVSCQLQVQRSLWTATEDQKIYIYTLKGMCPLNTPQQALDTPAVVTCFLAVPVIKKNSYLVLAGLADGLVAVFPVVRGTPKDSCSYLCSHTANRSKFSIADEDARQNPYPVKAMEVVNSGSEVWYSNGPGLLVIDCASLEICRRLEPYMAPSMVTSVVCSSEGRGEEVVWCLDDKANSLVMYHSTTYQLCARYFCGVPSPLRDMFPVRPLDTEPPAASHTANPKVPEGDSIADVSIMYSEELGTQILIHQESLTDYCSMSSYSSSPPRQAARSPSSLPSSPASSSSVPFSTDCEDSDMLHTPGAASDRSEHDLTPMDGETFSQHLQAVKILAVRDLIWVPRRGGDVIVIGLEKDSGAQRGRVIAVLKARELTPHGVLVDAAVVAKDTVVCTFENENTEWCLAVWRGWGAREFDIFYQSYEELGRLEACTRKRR
T1 sequence (Q5S007 whole entry G2019S): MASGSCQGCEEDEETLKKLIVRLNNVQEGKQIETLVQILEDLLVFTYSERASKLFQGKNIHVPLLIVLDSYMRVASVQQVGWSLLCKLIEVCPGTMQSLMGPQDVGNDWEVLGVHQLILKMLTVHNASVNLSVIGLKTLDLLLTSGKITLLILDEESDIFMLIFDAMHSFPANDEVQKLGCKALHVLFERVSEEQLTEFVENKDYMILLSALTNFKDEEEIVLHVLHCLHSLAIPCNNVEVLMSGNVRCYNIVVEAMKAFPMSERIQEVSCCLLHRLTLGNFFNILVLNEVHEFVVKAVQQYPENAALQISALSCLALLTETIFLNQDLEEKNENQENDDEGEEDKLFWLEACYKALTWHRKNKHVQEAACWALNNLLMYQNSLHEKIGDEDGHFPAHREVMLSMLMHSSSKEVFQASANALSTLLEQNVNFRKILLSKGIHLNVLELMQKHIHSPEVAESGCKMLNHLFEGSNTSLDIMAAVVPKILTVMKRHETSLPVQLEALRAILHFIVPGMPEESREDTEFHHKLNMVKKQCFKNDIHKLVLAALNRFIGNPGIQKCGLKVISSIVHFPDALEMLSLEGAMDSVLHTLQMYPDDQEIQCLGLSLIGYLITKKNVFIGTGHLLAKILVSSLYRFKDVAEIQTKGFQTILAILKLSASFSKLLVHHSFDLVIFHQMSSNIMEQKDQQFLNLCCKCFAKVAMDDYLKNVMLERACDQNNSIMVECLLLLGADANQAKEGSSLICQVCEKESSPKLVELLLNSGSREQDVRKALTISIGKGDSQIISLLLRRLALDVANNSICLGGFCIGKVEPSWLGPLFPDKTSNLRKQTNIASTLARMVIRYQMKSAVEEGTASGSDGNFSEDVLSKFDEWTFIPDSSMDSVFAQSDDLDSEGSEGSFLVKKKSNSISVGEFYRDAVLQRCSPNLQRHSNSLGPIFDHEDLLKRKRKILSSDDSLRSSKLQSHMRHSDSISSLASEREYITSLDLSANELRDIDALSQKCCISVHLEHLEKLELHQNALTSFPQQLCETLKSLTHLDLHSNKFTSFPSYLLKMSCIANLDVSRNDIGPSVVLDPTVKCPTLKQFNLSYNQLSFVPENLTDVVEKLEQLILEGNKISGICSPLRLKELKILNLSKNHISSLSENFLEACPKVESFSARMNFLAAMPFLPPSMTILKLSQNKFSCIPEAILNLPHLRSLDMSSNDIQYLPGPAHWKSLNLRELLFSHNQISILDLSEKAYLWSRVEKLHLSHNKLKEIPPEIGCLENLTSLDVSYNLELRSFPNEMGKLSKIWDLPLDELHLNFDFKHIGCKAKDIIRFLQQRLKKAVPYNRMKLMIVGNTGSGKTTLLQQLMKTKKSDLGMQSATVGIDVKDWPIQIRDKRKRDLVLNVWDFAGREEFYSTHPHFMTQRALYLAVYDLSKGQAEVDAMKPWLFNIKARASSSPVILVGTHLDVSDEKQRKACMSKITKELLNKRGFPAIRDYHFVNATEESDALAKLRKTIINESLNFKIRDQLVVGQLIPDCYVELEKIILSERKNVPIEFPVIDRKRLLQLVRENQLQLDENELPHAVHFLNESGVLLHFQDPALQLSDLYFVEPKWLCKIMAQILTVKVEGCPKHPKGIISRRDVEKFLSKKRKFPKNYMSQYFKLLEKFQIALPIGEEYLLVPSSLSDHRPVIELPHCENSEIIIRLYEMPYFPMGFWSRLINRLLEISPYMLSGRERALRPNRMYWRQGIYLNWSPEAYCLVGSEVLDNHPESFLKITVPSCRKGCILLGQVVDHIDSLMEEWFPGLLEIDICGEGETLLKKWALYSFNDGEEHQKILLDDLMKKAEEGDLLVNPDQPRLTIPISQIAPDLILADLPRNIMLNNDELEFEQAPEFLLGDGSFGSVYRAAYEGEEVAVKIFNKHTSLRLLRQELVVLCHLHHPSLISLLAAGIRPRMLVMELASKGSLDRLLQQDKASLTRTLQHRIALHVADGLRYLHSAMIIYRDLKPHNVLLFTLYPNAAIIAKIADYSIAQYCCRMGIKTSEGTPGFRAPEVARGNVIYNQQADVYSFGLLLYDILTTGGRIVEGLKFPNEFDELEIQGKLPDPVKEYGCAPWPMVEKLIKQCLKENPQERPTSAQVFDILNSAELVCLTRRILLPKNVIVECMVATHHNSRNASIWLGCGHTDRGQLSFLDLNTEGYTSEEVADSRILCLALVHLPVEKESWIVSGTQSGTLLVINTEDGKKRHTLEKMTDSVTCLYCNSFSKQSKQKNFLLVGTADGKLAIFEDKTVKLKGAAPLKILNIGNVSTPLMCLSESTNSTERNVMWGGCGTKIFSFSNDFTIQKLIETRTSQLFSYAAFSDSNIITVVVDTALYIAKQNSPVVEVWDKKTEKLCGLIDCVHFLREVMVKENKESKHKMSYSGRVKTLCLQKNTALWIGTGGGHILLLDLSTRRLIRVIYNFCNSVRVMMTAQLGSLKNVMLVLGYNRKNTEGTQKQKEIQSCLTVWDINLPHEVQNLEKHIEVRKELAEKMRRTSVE

In the case of `Cc1ccc(-n2nc(C(C)(C)C)cc2NC(=O)Nc2cccc(-c3c[nH]c4nc(Cl)nc(N5CCOCC5)c34)c2)cc1` [Compound 30], the “inhibition of Rab8a phosphorylation by wild-type and G2019S LRRK2” value (G2019S LRRK2) is reported as “inhibited phosphorylation of Rab8a by both the wild-type and mutant kinase”, the “pRab8/Rab8/LRRK2 normalized to DMSO, Mean” value (G2019S LRRK2) is reported as 0.5785 and the “pRab8/Rab8/LRRK2 normalized to DMSO” value (G2019S LRRK2; listed as RN277) is reported as 0.5672 and 0.4996 and 1.119 and 0.1285. For the same compound, the “pRab7/Rab7/LRRK1 normalized to DMSO, Mean” value (LRRK1; 250 nM) was 0.2801, the “pRab7/Rab7/LRRK1 normalized to DMSO” value (LRRK1; 250 nM, listed as RN277) was 0.1952 and 0.2204 and 0.4248 and the “pRab7/Rab7/LRRK1 normalized to DMSO, Mean” value (LRRK1; 500 nM) was 0.132. The “pRab7/Rab7/LRRK1 normalized to DMSO” value (LRRK1; 500 nM, listed as RN277) was 0.134 and 0.06831 and 0.1937, the “pRab7/Rab7/LRRK1 normalized to DMSO, Mean” value (LRRK1; 1 μM) was 0.07421 and the “pRab7/Rab7/LRRK1 normalized to DMSO” value (LRRK1; 1 µM, listed as RN277) was 0.05675 and 0.07868 and 0.08722. For the same compound, the “pRab7/Rab7/LRRK1 normalized to DMSO, Mean” value (LRRK1; 5 μM) was 0.02826, the “pRab7/Rab7/LRRK1 normalized to DMSO” value (LRRK1; 5 µM, listed as RN277) was 0.01168 and 0.03108 and 0.04201 and the “inhibition of LRRK1 kinase activity in cells” value (LRRK1; listed as RN277) was “strong inhibitory effect; also recorded: potently inhibited LRRK1 in cells”.

In the case of `CCSc1nc(NC)c2c(-c3cccc(NC(=O)Nc4cc(C(C)(C)C)nn4-c4ccc(C)cc4)c3)c[nH]c2n1` [Compound 32], the “inhibition of Rab8a phosphorylation by wild-type and G2019S LRRK2” value (G2019S LRRK2) is reported as “inhibited phosphorylation of Rab8a by both the wild-type and mutant kinase”, the “pRab8/Rab8/LRRK2 normalized to DMSO, Mean” value (G2019S LRRK2) is reported as 0.8793 and the “pRab8/Rab8/LRRK2 normalized to DMSO” value (G2019S LRRK2; listed as RN341) is reported as 0.923 and 1.39 and 0.7952 and 0.4091. The “pRab7/Rab7/LRRK1 normalized to DMSO, Mean” value (LRRK1; 250 nM) was 0.1265, the “pRab7/Rab7/LRRK1 normalized to DMSO” value (LRRK1; 250 nM, listed as RN341) was 0.09263 and 0.098 and 0.1889 and the “pRab7/Rab7/LRRK1 normalized to DMSO, Mean” value (LRRK1; 500 nM) was 0.07673. For the same compound, the “pRab7/Rab7/LRRK1 normalized to DMSO” value (LRRK1; 500 nM, listed as RN341) was 0.0375 and 0.09153 and 0.1011, the “pRab7/Rab7/LRRK1 normalized to DMSO, Mean” value (LRRK1; 1 μM) was 0.0594 and the “pRab7/Rab7/LRRK1 normalized to DMSO” value (LRRK1; 1 µM, listed as RN341) was 0.03839 and 0.04963 and 0.09017. The “pRab7/Rab7/LRRK1 normalized to DMSO, Mean” value (LRRK1; 5 μM) was 0.03197, the “pRab7/Rab7/LRRK1 normalized to DMSO” value (LRRK1; 5 µM, listed as RN341) was 0.0003413 and 0.05428 and 0.04127 and the “inhibition of LRRK1 kinase activity in cells” value (LRRK1; listed as RN341) was “strong inhibitory effect; also recorded: potently inhibited LRRK1 in cells”.
